In patent US20230116972A1, “CD38 MODULATORS AND METHODS OF USE THEREOF” (Cytokinetics, Inc., priority 2021, published 2023):
Like-named read-outs stand apart in the source and are kept apart here.

Experiments:
[1] = tested on: nicotinamide levels in mouse tissues; test: tissue levels of nicotinamide in aged C57BL/6 mice after oral administration; assay type: in vivo; details: 100 mg/kg BID oral, 72-week-old male C57BL/6J mice, 4 h after the 3rd administration, vs vehicle, FIG. 1
Procedure: 0.1% Tween 80/0.5% HPMC or compound 148 prepared with 0.1% Tween 80/0.5% HPMC was orally administered at 100 mg/kg BID to 72-week-old male C57BL/6J mice. 4 h after the 3rd administration, each mouse was euthanized, and tissues collected.
Whole blood was collected and placed into pre-chilled K2EDTA microtainer tube, rotated 3-4 times to ensure anticoagulant mixing. An aliquot from the whole blood collection was added to 10 volumes of 0.5M PCA (perchloric acid), inverted 3-4 times to mix well, and then frozen on dry ice. While under isoflurane after cardiac puncture for blood collection, the following tissues were harvested in this order: heart, liver lobe, then by brain. All tissues were processed using pre-chilled freeze clamp. The frozen tissues were placed in pre-frozen labeled 2 mL Eppendorf tubes. The tissues were stored at −80° C. until processing. Upon processing, each tissue was cryomilled in the frozen state to form a powder. Frozen powdered tissue was weighed into pre-frozen tubes. Approximately 10 volumes of 0.5M PCA per weight of tissue were added to the tube followed by freezing until analysis. Upon analysis, blood and tissue samples were thawed on ice, followed by homogenization via TissueLyzer. Samples were centrifuged, the supernatant was collected and filtered, and the nicotinamide concentration in the supernatant of sample was measured using LC/MS.

CYP2B6 = biological target: T1, CYP2B6 (Homo sapiens, UniProt P20813); test: time dependent inhibition of CYP450 in pooled human microsomes; assay type: in vitro ADME
T1 construct: from tissue; host or cells: human liver microsomes (pooled in the time-dependent assay)
T1 sequence (P20813 1-491): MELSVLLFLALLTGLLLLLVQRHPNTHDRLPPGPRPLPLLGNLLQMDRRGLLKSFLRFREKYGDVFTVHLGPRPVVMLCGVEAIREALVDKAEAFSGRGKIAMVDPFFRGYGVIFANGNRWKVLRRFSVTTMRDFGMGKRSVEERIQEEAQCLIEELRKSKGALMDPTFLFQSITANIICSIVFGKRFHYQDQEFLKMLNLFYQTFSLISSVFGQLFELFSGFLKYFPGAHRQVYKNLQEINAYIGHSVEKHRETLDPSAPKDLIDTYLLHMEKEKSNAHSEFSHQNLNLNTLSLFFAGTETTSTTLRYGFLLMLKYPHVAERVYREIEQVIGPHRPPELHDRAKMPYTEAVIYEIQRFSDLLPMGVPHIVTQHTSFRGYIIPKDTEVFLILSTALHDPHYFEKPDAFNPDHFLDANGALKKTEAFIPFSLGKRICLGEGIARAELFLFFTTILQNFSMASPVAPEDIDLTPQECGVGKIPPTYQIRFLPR
Procedure: (§1) Time dependent inhibition: An assessment of the time-dependent Inhibitory potential of test compounds against the principal human cytochrome P450 isozymes was carried out using standard methods (Grimm et al, “The Conduct of in Vitro Studies to Address Time-Dependent Inhibition of Drug-Metabolizing Enzymes: A Perspective of the Pharmaceutical Research and Manufacturers of America”, Drug Metabolism and Disposition, 37 (7): 1355, 2009). […] Each compound was pre-incubated at 37° C. plus and minus NADPH for 30 min, and with 0 min pre-incubation for assessment of potential time dependent inhibition. LC-MS/MS was used to quantify metabolite formation. […] Note that, in Tables 8 and 9, the “Compound No” corresponds to the compound numbers in Table 1.

CYP2C19 = biological target: T2, CYP2C19 (Homo sapiens, UniProt P33261); test: as above; assay type: in vitro ADME
T2 construct: from tissue; host or cells: human liver microsomes (pooled in the time-dependent assay)
Procedure: as §1

CYP2C8 = biological target: T3, CYP2C8 (Homo sapiens, UniProt P10632); test: as above; assay type: in vitro ADME
T3 construct: Pooled human microsomes and selective CYP probe substrates were used; from tissue; host or cells: pooled human (hepatic) microsomes
T3 sequence (P10632 1-490): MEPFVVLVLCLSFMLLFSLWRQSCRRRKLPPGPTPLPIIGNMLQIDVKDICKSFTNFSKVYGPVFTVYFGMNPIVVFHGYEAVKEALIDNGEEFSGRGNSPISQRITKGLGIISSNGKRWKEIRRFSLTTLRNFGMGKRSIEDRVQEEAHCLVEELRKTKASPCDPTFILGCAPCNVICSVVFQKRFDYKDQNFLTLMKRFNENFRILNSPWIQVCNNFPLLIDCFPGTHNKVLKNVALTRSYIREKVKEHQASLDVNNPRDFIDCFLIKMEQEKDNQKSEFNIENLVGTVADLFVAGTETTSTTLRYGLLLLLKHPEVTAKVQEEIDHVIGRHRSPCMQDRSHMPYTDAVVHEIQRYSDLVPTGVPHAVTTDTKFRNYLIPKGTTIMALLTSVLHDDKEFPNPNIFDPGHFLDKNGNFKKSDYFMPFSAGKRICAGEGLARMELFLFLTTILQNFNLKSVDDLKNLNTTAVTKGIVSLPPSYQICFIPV
Procedure: as §1

CYP2C9 = biological target: T4, CYP2C9 (Homo sapiens, UniProt P11712); test: as above; assay type: in vitro ADME
T4 construct: from tissue; host or cells: human liver microsomes (pooled in the time-dependent assay)
Procedure: as §1

CYP2D6 = biological target: T5, CYP2D6 (Homo sapiens, UniProt P10635); test: as above; assay type: in vitro ADME
T5 construct: from tissue; host or cells: human liver microsomes (pooled in the time-dependent assay)
Procedure: as §1

CYP3A4 = biological target: T6, CYP3A4 (Homo sapiens, UniProt P08684); test: as above; assay type: in vitro ADME
T6 construct: from tissue; host or cells: human liver microsomes (pooled in the time-dependent assay)
Procedure: as §1

[2] = tested on: human hepatic cytochrome P450 isozymes (CYP1A2, 2B6, 2C8, 2C9, 2C19, 2D6, and 3A4); test: time dependent inhibition, statement over all isozymes tested; assay type: in vitro ADME; details: any isozymes; pooled human microsomes; no indication of time dependent inhibition
Procedure: as §1

[3] = between 30 min pre-incubation plus NADPH and 0 min
[4] = pre-incubation 30 min (NO NADPH)

T5 sequence (P10635 whole entry): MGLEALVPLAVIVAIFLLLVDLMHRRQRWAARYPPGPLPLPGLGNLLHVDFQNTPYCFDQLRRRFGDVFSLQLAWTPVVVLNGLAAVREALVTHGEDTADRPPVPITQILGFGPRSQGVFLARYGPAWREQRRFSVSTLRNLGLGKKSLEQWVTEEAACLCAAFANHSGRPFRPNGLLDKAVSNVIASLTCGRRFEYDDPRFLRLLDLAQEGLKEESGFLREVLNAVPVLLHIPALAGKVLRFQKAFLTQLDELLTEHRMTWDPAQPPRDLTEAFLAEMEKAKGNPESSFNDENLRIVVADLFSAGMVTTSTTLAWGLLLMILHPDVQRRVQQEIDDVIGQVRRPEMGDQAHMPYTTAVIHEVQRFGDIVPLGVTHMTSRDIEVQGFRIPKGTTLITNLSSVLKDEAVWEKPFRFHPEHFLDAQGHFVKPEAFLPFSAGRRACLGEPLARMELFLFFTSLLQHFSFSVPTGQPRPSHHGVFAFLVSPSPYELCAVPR
T2 sequence (P33261 whole entry): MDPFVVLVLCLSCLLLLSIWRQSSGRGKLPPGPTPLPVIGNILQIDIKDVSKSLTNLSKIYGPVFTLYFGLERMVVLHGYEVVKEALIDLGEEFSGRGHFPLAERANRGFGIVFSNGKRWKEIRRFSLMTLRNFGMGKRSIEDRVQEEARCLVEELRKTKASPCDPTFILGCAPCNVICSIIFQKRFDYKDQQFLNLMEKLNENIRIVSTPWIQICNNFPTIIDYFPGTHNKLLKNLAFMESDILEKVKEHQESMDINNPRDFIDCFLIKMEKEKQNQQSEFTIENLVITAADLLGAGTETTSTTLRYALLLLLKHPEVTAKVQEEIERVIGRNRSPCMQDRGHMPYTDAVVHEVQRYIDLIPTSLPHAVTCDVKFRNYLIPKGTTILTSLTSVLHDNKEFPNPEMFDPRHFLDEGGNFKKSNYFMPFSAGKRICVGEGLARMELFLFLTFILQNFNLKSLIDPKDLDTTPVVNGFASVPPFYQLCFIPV
T6 sequence (P08684 whole entry): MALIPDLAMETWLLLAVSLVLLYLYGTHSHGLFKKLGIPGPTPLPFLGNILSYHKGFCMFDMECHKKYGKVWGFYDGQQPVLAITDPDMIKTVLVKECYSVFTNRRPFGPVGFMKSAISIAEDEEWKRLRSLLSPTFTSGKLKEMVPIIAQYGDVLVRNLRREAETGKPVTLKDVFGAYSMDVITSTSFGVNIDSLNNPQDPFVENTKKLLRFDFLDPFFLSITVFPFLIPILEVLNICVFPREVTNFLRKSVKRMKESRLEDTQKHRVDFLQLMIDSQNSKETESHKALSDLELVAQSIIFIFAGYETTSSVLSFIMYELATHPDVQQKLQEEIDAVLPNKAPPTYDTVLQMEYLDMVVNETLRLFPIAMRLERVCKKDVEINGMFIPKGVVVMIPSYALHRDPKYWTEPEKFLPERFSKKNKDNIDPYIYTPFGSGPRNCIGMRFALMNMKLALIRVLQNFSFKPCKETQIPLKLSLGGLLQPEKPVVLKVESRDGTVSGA
T4 sequence (P11712 whole entry): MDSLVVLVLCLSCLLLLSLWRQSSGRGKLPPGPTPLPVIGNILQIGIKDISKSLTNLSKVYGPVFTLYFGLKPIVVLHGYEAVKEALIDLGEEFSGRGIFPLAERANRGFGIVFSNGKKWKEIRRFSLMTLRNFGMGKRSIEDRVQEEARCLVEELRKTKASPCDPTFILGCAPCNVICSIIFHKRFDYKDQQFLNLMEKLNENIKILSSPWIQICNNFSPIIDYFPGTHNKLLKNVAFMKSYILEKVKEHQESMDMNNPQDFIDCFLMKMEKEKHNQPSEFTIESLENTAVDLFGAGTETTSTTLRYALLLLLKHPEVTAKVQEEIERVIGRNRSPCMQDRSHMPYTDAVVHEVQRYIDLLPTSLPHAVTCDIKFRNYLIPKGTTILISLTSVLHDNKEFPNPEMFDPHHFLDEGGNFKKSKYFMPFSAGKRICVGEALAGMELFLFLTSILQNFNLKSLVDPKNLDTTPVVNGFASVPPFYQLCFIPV

IC50 (CYP2B6; 0 min pre-incubation, pooled human microsomes, read-out: IC50 CYP2B6 (reversible inhibition)): 26.2 µM
CYP2B6 IC50 fold shift (CYP2B6; [3]): none
IC50 (CYP2B6; pre-incubation 30 min (NADPH), read-out: CYP2B6 IC50): > 30 µM
IC50 (CYP2B6; pre-incubation 30 min (NO NADPH), read-out: CYP2B6 IC50): 24.4 µM
CYP2C19 IC50 fold shift (CYP2C19; [3]): none
IC50 (CYP2C19; pre-incubation 0 min): > 30 µM
IC50 (CYP2C19; pre-incubation 30 min (NADPH)): > 30 µM
IC50 (CYP2C19; [4]): > 30 µM
CYP2C8 IC50 fold shift (CYP2C8; [3]): none
IC50 (CYP2C8; pre-incubation 0 min): > 30 µM
IC50 (CYP2C8; pre-incubation 30 min (NADPH)): > 30 µM
IC50 (CYP2C8; [4]): > 30 µM
CYP2C9 IC50 fold shift (CYP2C9; [3]): none
IC50 (CYP2C9; pre-incubation 0 min): > 30 µM
IC50 (CYP2C9; pre-incubation 30 min (NADPH)): > 30 µM
IC50 (CYP2C9; [4]): > 30 µM
IC50 (CYP2D6; 0 min pre-incubation, pooled human microsomes, read-out: IC50 CYP2D6 (reversible inhibition)): 13.7 µM
CYP2D6 IC50 fold shift (CYP2D6; [3]): 1.1
IC50 (CYP2D6; pre-incubation 30 min (NADPH), read-out: CYP2D6 IC50): 12.3 µM
IC50 (CYP2D6; pre-incubation 30 min (NO NADPH), read-out: CYP2D6 IC50): 9.1 µM
CYP3A4-M IC50 fold shift (CYP3A4; [3]): none
CYP3A4-T IC50 fold shift (CYP3A4; [3]): none
IC50 (CYP3A4; pre-incubation 0 min, read-out: CYP3A4-M IC50): > 30 µM
IC50 (CYP3A4; pre-incubation 0 min, read-out: CYP3A4-T IC50): > 30 µM
IC50 (CYP3A4; pre-incubation 30 min (NADPH), read-out: CYP3A4-M IC50): > 30 µM
IC50 (CYP3A4; pre-incubation 30 min (NADPH), read-out: CYP3A4-T IC50): > 30 µM
IC50 (CYP3A4; pre-incubation 30 min (NO NADPH), read-out: CYP3A4-M IC50): > 30 µM
IC50 (CYP3A4; pre-incubation 30 min (NO NADPH), read-out: CYP3A4-T IC50): > 30 µM
IC50 fold shift between 30 min pre-incubation plus NADPH and 0 min preincubation [2]: ≤ 1.5 fold
SMILES: CO[C@H]1CC[C@H](NC(=O)c2nccc(-c3cncn3C)n2)CC1 [Compound 148, N-((1r,4r)-4-methoxycyclohexyl)-4-(1-methyl-1H-imidazol-5-yl)pyrimidine-2-carboxamide]
nicotinamide levels in blood ([1]; blood): decreased
nicotinamide levels in brain ([1]; brain): decreased
nicotinamide levels in heart ([1]; heart): decreased
nicotinamide levels in liver ([1]; liver): decreased
